{
  "source": "PubChem BioAssay (NCI)",
  "assay_in_all_cases": "NCI anticancer screen, dose series, 48 h",
  "key": {"SNB-19 CNS": {"system": "SNB-19 CNS"}, "MDA-N": {"system": "MDA-N"}, "CAKI-1 renal": {"system": "CAKI-1 renal"}, "ACHN renal": {"system": "ACHN renal"}, "MOLT-4 leukemia": {"system": "MOLT-4 leukemia"}, "CCRF-CEM leukemia": {"system": "CCRF-CEM leukemia"}, "UO-31 renal": {"system": "UO-31 renal"}, "NCI-H522 lung": {"system": "NCI-H522 lung"}, "A549 NSCLC": {"system": "A549 NSCLC"}, "786-0 renal": {"system": "786-0 renal"}, "UACC-257 melanoma": {"system": "UACC-257 melanoma"}, "M14 melanoma": {"system": "M14 melanoma"}, "MALME-3M melanoma": {"system": "MALME-3M melanoma"}, "K-562 leukemia": {"system": "K-562 leukemia"}, "RXF 393 renal": {"system": "RXF 393 renal"}, "SNB-75 CNS": {"system": "SNB-75 CNS"}, "MDA-MB-231 breast": {"system": "MDA-MB-231 breast"}, "SF-268 CNS": {"system": "SF-268 CNS"}, "A498 renal": {"system": "A498 renal"}, "HS 578T breast": {"system": "HS 578T breast"}, "SK-MEL-2 melanoma": {"system": "SK-MEL-2 melanoma"}, "IGROV1 ovarian": {"system": "IGROV1 ovarian"}, "LOX IMVI melanoma": {"system": "LOX IMVI melanoma"}, "SK-MEL-5 melanoma": {"system": "SK-MEL-5 melanoma"}, "MCF7 breast": {"system": "MCF7 breast"}, "SF-295 CNS": {"system": "SF-295 CNS"}, "HOP-92 NSCLC": {"system": "HOP-92 NSCLC"}, "PC-3 prostate": {"system": "PC-3 prostate"}, "SK-MEL-28 melanoma": {"system": "SK-MEL-28 melanoma"}, "OVCAR-4 ovarian": {"system": "OVCAR-4 ovarian"}, "DU-145 prostate": {"system": "DU-145 prostate"}, "HCT-116 colon": {"system": "HCT-116 colon"}, "COLO 205 colon": {"system": "COLO 205 colon"}, "SF-539 CNS": {"system": "SF-539 CNS"}, "UACC-62 melanoma": {"system": "UACC-62 melanoma"}, "OVCAR-8 ovarian": {"system": "OVCAR-8 ovarian"}, "U251 CNS": {"system": "U251 CNS"}, "HCT-15 colon": {"system": "HCT-15 colon"}, "SK-OV-3 ovarian": {"system": "SK-OV-3 ovarian"}, "NCI/ADR-RES ovarian": {"system": "NCI/ADR-RES ovarian"}, "NCI-H226 lung": {"system": "NCI-H226 lung"}, "NCI-H23 lung": {"system": "NCI-H23 lung"}, "HCC-2998 colon": {"system": "HCC-2998 colon"}, "EKVX NSCLC": {"system": "EKVX NSCLC"}, "SR leukemia": {"system": "SR leukemia"}, "TK-10 renal": {"system": "TK-10 renal"}, "HT29 colon": {"system": "HT29 colon"}, "SW-620 colon": {"system": "SW-620 colon"}, "HL-60(TB) leukemia": {"system": "HL-60(TB) leukemia"}, "RPMI-8226 leukemia": {"system": "RPMI-8226 leukemia"}, "OVCAR-5 ovarian": {"system": "OVCAR-5 ovarian"}, "NCI-H460 lung": {"system": "NCI-H460 lung"}, "HOP-62 NSCLC": {"system": "HOP-62 NSCLC"}, "BT-549 breast": {"system": "BT-549 breast"}, "SN12C renal": {"system": "SN12C renal"}, "T-47D breast": {"system": "T-47D breast"}, "MDA-MB-435": {"system": "MDA-MB-435"}, "KM12 colon": {"system": "KM12 colon"}, "OVCAR-3 ovarian": {"system": "OVCAR-3 ovarian"}},
  "note": "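1) Cells in 96-well plates. 2) Compound, 48 h, 5 concentrations. 3) Linear interpolation between surrounding doses. 4) Unreached endpoint = highest concentration. TGI marks complete inhibition of growth.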",
  "data": [
    {"smiles": "CCc1nc(N)nc(N)c1-c1ccc2c(c1)nnn2CCc1ccccc1", "values": [
      {"measurement": "TGI", "setting": "SNB-19 CNS", "result": 86.4, "unit": "µM"},
      {"measurement": "TGI", "setting": "MDA-N", "result": "> 68.3", "unit": "µM"},
      {"measurement": "TGI", "setting": "CAKI-1 renal", "result": "> 100", "unit": "µM"},
      {"measurement": "TGI", "setting": "ACHN renal", "result": "> 70.1", "unit": "µM"},
      {"measurement": "TGI", "setting": "MOLT-4 leukemia", "result": 50.2, "unit": "µM"},
      {"measurement": "TGI", "setting": "CCRF-CEM leukemia", "result": "> 69.9", "unit": "µM"},
      {"measurement": "TGI", "setting": "UO-31 renal", "result": "> 60.6", "unit": "µM"},
      {"measurement": "TGI", "setting": "NCI-H522 lung", "result": 33.9, "unit": "µM"},
      {"measurement": "TGI", "setting": "A549 NSCLC", "result": "> 100", "unit": "µM"},
      {"measurement": "TGI", "setting": "786-0 renal", "result": 64.4, "unit": "µM"},
      {"measurement": "TGI", "setting": "UACC-257 melanoma", "result": "> 68.8", "unit": "µM"},
      {"measurement": "TGI", "setting": "M14 melanoma", "result": "> 65.9", "unit": "µM"},
      {"measurement": "TGI", "setting": "MALME-3M melanoma", "result": 49.5, "unit": "µM"},
      {"measurement": "TGI", "setting": "K-562 leukemia", "result": "> 51.1", "unit": "µM"},
      {"measurement": "TGI", "setting": "RXF 393 renal", "result": "> 73.8", "unit": "µM"},
      {"measurement": "TGI", "setting": "SNB-75 CNS", "result": 64.1, "unit": "µM"},
      {"measurement": "TGI", "setting": "MDA-MB-231 breast", "result": "> 72.4", "unit": "µM"},
      {"measurement": "TGI", "setting": "SF-268 CNS", "result": "> 64.2", "unit": "µM"},
      {"measurement": "TGI", "setting": "A498 renal", "result": "> 79", "unit": "µM"},
      {"measurement": "TGI", "setting": "HS 578T breast", "result": "> 85", "unit": "µM"},
      {"measurement": "TGI", "setting": "SK-MEL-2 melanoma", "result": 61.9, "unit": "µM"},
      {"measurement": "TGI", "setting": "IGROV1 ovarian", "result": "> 70.3", "unit": "µM"},
      {"measurement": "TGI", "setting": "LOX IMVI melanoma", "result": "> 65", "unit": "µM"},
      {"measurement": "TGI", "setting": "SK-MEL-5 melanoma", "result": 32.2, "unit": "µM"},
      {"measurement": "TGI", "setting": "MCF7 breast", "result": "> 70", "unit": "µM"},
      {"measurement": "TGI", "setting": "SF-295 CNS", "result": 57.1, "unit": "µM"},
      {"measurement": "TGI", "setting": "HOP-92 NSCLC", "result": "> 79.6", "unit": "µM"},
      {"measurement": "TGI", "setting": "PC-3 prostate", "result": "> 64.7", "unit": "µM"},
      {"measurement": "TGI", "setting": "SK-MEL-28 melanoma", "result": "> 71.5", "unit": "µM"},
      {"measurement": "TGI", "setting": "OVCAR-4 ovarian", "result": "> 100", "unit": "µM"},
      {"measurement": "TGI", "setting": "DU-145 prostate", "result": "> 65.2", "unit": "µM"},
      {"measurement": "TGI", "setting": "HCT-116 colon", "result": "> 61.1", "unit": "µM"},
      {"measurement": "TGI", "setting": "COLO 205 colon", "result": 42, "unit": "µM"},
      {"measurement": "TGI", "setting": "SF-539 CNS", "result": "> 68.9", "unit": "µM"},
      {"measurement": "TGI", "setting": "UACC-62 melanoma", "result": "> 65.7", "unit": "µM"},
      {"measurement": "TGI", "setting": "OVCAR-8 ovarian", "result": "> 64.9", "unit": "µM"},
      {"measurement": "TGI", "setting": "U251 CNS", "result": "> 70.5", "unit": "µM"},
      {"measurement": "TGI", "setting": "HCT-15 colon", "result": "> 63.2", "unit": "µM"},
      {"measurement": "TGI", "setting": "SK-OV-3 ovarian", "result": "> 75.2", "unit": "µM"},
      {"measurement": "TGI", "setting": "NCI/ADR-RES ovarian", "result": 68.8, "unit": "µM"},
      {"measurement": "TGI", "setting": "NCI-H226 lung", "result": "> 71.8", "unit": "µM"},
      {"measurement": "TGI", "setting": "NCI-H23 lung", "result": "> 64.9", "unit": "µM"},
      {"measurement": "TGI", "setting": "HCC-2998 colon", "result": 51.4, "unit": "µM"},
      {"measurement": "TGI", "setting": "EKVX NSCLC", "result": "> 75.8", "unit": "µM"},
      {"measurement": "TGI", "setting": "SR leukemia", "result": 49.5, "unit": "µM"},
      {"measurement": "TGI", "setting": "TK-10 renal", "result": "> 83.7", "unit": "µM"},
      {"measurement": "TGI", "setting": "HT29 colon", "result": 56.1, "unit": "µM"},
      {"measurement": "TGI", "setting": "SW-620 colon", "result": "> 66.5", "unit": "µM"},
      {"measurement": "TGI", "setting": "HL-60(TB) leukemia", "result": 35.3, "unit": "µM"},
      {"measurement": "TGI", "setting": "RPMI-8226 leukemia", "result": 51.8, "unit": "µM"},
      {"measurement": "TGI", "setting": "OVCAR-5 ovarian", "result": "> 82.5", "unit": "µM"},
      {"measurement": "TGI", "setting": "NCI-H460 lung", "result": 51.2, "unit": "µM"},
      {"measurement": "TGI", "setting": "HOP-62 NSCLC", "result": "> 69.9", "unit": "µM"},
      {"measurement": "TGI", "setting": "BT-549 breast", "result": "> 69", "unit": "µM"},
      {"measurement": "TGI", "setting": "SN12C renal", "result": "> 73.5", "unit": "µM"},
      {"measurement": "TGI", "setting": "T-47D breast", "result": 64.5, "unit": "µM"},
      {"measurement": "TGI", "setting": "MDA-MB-435", "result": "> 68.7", "unit": "µM"},
      {"measurement": "TGI", "setting": "KM12 colon", "result": "> 64.1", "unit": "µM"},
      {"measurement": "TGI", "setting": "OVCAR-3 ovarian", "result": "> 70.1", "unit": "µM"}
    ]}
  ]
}
